Results published in patent US10022372B2, “Caveolin-1 related methods for treating glioblastoma with temozolomide” (THOMAS JEFFERSON UNIVERSITY, priority 2013, dated 2018).

Columns and labels:
[1] = tested on: Cav-1 overexpressing U-87MG cells (LV105 Cav-1); assay: Annexin V / propidium iodide flow cytometry of TMZ-treated U-87MG cells; format: cell-based, human
Experimental: FIG. 5. […] Each group is normalized to its own DMSO control (*p<0.05 and **p<0.01 vs internal DMSO control, \p<0.01 vs TMZ treated LV105 control, n=3 per group).
U-87MG cells (50,000/well) were plated in 12-well tissue culture dishes and allowed to attach overnight prior to changing their medium into complete EMEM containing either 500 μM TMZ or DMSO control and culturing them for an additional 72 hours. Cells were then trypsinized, centrifuged at 300×g for 5 min and resuspended in binding buffer with APC-conjugated anti-Annexin V antibody (BP Biosciences) and 0.33 μg/ml Propidium Iodide (PI, KPL, Gaithersburg, Md.). All samples were run on a BD FACSCalibur flow cytometer (BD Biosciences). Cells were quantified according to staining as follows: viable (Annexin V negative, PI negative), early apoptotic (Annexin V positive, PI negative), late apoptotic (Annexin V positive, PI positive), and dead (Annexin V negative, PI positive).

[2] = cited from earlier work
[3] = tested on: three different GBM-derived cell lines; details: in vitro administration, Boyden-chamber assay; cited from earlier work

Row | Molecule | increase in early apoptotic cells compared to TMZ-treated LV105 control cells ([1]; Cav-1 overexpressing U-87MG cells, 500 μM, 72 hours, p<0.01) | cytotoxicity at 500 µM ([1]; Homo sapiens, U-87 MG, 72 h, read-out: reduction in cell viability compared to TMZ treated LV105 control cells) | stability at acidic pH ([2]; pH <5) | stability at pH>7 ([2]; pH >7) | invasion [3]
1 | Cn1nnc2c(C(N)=O)ncn2c1=O [temozolomide, 3,4-dihydro-3-methyl-4-oxoimidazo[5,1-d]-αs-tetrazine-8-carboxamide] | > 400% | 5.5% | stable | labile | –
2 | full length Cav-1: full length Caveolin-1 protein administered in vitro (protein, UniProt Q03135 1-178, looked up, full-length, full length Caveolin-1 protein administered in vitro) MSGGKYVDSEGHLYTVPIREQGNIYKPNNKAMADELSEKQVYDAHTKEIDLVNRDPKHLNDDVVKIDFEDVIAEPEGTHSFDGIWKASFTTFTVTKYWFYRLLSALFGIPMALIWGIYFAILSFLHIWAVVPCIKSFLIEIQCISRVYSIYVHTVCDPLFEAVGKIFSNVRINLQKEI | – | – | – | – | prevented invasion
